Measurements published in publication PMC5513037, “Examining the influence of specificity ligands and ATP-competitive ligands on the overall effectiveness of bivalent kinase inhibitors” (Proteome Science, 2017).

Key:
Test in all cases: KAM-matrix competition in K562 lysate;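 as to 0.001 uM KAM: median log10 fold change of treatment over DMSO control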;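 as to 0.01 uM KAM: median log10 fold change of treatment over DMSO control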;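 as to 0.1 uM KAM: median log10 fold change of treatment over DMSO control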;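 as to 1 uM KAM: median log10 fold change of treatment over DMSO control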;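 as to 10 uM KAM: median log10 fold change of treatment over DMSO control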
Assay type in all cases: binding
CLK2 = target: T1, CLK2 (Homo sapiens, UniProt P49760);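 as to 0.001 uM KAM: median log10 fold change of treatment over DMSO control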;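 as to 0.01 uM KAM: median log10 fold change of treatment over DMSO control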;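 as to 0.1 uM KAM: median log10 fold change of treatment over DMSO control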;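 as to 1 uM KAM: median log10 fold change of treatment over DMSO control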;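 as to 10 uM KAM: median log10 fold change of treatment over DMSO control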
T1 construct: endogenous in cells; host or cells: K562
Procedure: (§1) Supplement 12953_2017_125_MOESM1_ESM.zip/MS_Supp Info.xlsx, sheet "KAM" | column: 10 uM KAM; 1 uM KAM; 0.1 uM KAM; 0.01 uM KAM; 0.001 uM KAM; RB50

MAP4K3 = target: T2, MAP4K3 (Homo sapiens, UniProt Q8IVH8)
T2 construct: endogenous in cells; host or cells: K562
T2 sequence (Q8IVH8 1-894): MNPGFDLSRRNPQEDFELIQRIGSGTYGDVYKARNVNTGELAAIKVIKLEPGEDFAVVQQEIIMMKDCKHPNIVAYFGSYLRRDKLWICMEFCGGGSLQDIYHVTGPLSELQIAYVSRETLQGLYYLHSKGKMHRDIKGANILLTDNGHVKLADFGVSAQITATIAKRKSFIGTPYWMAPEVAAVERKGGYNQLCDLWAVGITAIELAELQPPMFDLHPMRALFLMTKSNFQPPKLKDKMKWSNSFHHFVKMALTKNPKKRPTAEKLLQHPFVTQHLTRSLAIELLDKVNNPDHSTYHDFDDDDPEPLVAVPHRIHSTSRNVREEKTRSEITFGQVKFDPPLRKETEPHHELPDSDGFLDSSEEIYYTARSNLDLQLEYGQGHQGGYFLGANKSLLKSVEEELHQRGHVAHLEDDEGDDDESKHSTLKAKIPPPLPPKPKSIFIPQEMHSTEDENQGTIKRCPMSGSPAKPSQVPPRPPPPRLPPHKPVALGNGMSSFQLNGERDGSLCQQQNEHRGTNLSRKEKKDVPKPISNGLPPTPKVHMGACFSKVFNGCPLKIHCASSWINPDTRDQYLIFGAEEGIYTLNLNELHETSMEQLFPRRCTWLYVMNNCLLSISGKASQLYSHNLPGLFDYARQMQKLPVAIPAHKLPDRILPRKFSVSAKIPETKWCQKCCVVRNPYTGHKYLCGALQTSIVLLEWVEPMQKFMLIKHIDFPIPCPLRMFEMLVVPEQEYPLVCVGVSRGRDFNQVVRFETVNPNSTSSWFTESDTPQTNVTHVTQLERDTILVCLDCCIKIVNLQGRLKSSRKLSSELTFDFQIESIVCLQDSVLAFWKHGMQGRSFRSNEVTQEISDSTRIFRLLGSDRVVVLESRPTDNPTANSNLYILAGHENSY
Procedure: as §1

PIK3R4 = target: T3, PIK3R4 (Homo sapiens, UniProt Q99570);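 as to 0.001 uM KAM: median log10 fold change of treatment over DMSO control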;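 as to 0.01 uM KAM: median log10 fold change of treatment over DMSO control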;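 as to 0.1 uM KAM: median log10 fold change of treatment over DMSO control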;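 as to 1 uM KAM: median log10 fold change of treatment over DMSO control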;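 as to 10 uM KAM: median log10 fold change of treatment over DMSO control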
T3 construct: endogenous in cells; host or cells: K562
Procedure: as §1

PRPF4B = target: T4, PRPF4B (Homo sapiens, UniProt Q13523)
T4 construct: endogenous in cells; host or cells: K562
Procedure: as §1

SMG1 = target: T5, SMG1 (Homo sapiens, UniProt Q96Q15);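 as to 0.001 uM KAM: median log10 fold change of treatment over DMSO control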;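 as to 0.01 uM KAM: median log10 fold change of treatment over DMSO control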;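 as to 0.1 uM KAM: median log10 fold change of treatment over DMSO control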;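 as to 1 uM KAM: median log10 fold change of treatment over DMSO control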;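 as to 10 uM KAM: median log10 fold change of treatment over DMSO control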
T5 construct: endogenous in cells; host or cells: K562
Procedure: as §1

STK24 = target: T6, STK24 (Homo sapiens, UniProt Q9Y6E0);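 as to 0.001 uM KAM: median log10 fold change of treatment over DMSO control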;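 as to 0.01 uM KAM: median log10 fold change of treatment over DMSO control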;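 as to 0.1 uM KAM: median log10 fold change of treatment over DMSO control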;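 as to 1 uM KAM: median log10 fold change of treatment over DMSO control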;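 as to 10 uM KAM: median log10 fold change of treatment over DMSO control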
T6 construct: endogenous in cells; host or cells: K562
Procedure: as §1

TEC = target: T7, TEC (Homo sapiens, UniProt P42680)
T7 construct: endogenous in cells; host or cells: K562 cell lysate
T7 sequence (P42680 1-631): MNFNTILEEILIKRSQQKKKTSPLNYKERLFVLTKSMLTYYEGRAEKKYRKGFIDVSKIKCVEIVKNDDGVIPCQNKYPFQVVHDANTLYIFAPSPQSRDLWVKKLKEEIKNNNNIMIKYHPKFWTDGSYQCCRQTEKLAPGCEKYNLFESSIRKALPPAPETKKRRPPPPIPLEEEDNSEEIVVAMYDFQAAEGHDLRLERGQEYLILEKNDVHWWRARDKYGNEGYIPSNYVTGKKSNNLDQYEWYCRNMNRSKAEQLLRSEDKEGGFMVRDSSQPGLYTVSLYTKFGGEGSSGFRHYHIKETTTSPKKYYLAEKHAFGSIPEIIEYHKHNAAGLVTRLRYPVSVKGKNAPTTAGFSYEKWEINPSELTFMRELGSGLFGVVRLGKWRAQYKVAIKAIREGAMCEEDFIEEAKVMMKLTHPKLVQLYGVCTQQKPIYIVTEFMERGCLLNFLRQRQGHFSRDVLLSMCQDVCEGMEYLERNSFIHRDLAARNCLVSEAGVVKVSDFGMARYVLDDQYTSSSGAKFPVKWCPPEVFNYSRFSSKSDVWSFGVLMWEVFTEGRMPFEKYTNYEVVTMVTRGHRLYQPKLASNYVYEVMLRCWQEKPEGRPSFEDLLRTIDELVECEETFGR
Procedure: as §1

TRRAP = target: T8, TRRAP (Homo sapiens, UniProt Q9Y4A5);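 as to 0.001 uM KAM: median log10 fold change of treatment over DMSO control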;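 as to 0.01 uM KAM: median log10 fold change of treatment over DMSO control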;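 as to 0.1 uM KAM: median log10 fold change of treatment over DMSO control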;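 as to 1 uM KAM: median log10 fold change of treatment over DMSO control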;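 as to 10 uM KAM: median log10 fold change of treatment over DMSO control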
T8 construct: endogenous in cells; host or cells: K562
Procedure: as §1

[1] = KAM 0.001-10 uM, read-out: RB50 (the source's name)
[2] = read-out: RB50 (the source's name)

T6 sequence (Q9Y6E0 whole entry): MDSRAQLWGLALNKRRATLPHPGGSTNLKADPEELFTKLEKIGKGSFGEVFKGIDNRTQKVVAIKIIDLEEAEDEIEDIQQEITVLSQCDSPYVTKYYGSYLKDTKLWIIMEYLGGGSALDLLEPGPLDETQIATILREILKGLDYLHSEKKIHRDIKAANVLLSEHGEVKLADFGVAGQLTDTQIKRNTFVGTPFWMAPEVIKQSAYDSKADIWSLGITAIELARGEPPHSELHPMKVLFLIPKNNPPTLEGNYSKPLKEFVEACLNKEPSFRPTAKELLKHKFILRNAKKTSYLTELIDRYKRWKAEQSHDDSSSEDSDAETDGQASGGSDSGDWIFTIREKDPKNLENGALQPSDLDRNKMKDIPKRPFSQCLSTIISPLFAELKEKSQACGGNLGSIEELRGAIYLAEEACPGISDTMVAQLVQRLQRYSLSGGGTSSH
T1 sequence (P49760 whole entry): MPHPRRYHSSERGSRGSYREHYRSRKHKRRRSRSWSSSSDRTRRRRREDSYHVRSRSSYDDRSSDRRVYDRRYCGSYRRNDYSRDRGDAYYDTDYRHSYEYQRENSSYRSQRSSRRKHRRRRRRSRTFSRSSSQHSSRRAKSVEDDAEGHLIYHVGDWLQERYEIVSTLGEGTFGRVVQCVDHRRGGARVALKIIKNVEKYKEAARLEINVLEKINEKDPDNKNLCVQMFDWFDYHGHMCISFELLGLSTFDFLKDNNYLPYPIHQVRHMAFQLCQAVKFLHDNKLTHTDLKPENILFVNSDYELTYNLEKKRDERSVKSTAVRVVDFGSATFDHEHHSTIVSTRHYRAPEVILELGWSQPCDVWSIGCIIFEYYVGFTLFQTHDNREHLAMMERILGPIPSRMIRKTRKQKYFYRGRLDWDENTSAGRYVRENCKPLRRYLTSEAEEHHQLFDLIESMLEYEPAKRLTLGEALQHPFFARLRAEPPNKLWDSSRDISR
T3 sequence (Q99570 2-1358 limits assumed): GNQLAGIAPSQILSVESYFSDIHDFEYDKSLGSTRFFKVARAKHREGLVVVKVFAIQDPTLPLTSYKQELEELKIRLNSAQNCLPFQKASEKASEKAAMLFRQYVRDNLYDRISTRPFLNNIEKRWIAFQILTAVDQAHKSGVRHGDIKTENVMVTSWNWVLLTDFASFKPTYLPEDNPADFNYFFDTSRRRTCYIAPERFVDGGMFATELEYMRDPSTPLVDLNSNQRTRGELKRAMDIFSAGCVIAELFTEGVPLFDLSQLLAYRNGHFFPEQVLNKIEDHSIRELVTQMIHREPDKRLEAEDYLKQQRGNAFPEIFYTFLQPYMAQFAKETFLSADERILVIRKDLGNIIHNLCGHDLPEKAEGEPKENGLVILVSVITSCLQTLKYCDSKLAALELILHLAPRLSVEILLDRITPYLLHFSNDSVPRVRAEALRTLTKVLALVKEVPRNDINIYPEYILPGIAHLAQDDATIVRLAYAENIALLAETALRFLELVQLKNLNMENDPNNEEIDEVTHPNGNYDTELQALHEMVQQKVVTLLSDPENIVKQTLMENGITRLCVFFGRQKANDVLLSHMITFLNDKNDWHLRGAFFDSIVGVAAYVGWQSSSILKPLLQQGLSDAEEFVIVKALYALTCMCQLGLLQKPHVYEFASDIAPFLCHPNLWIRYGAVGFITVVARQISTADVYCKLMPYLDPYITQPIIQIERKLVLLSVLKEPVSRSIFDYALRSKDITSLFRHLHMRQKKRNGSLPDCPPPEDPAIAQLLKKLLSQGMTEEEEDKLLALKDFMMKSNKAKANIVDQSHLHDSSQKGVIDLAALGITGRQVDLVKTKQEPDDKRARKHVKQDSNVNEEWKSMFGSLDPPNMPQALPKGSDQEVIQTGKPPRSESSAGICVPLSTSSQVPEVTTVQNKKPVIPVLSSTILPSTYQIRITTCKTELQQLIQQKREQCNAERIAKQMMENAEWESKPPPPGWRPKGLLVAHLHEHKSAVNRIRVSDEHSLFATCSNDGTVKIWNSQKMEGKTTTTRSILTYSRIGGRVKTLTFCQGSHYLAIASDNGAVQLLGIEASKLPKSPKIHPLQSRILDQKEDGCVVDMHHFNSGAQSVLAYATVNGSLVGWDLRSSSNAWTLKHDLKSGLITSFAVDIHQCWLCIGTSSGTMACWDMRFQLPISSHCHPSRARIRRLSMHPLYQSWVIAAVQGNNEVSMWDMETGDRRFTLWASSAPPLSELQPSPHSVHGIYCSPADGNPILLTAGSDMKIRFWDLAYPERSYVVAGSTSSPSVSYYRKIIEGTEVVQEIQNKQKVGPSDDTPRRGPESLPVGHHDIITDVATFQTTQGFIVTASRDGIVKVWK
T3 sequence (Q8NEB9 whole entry partner): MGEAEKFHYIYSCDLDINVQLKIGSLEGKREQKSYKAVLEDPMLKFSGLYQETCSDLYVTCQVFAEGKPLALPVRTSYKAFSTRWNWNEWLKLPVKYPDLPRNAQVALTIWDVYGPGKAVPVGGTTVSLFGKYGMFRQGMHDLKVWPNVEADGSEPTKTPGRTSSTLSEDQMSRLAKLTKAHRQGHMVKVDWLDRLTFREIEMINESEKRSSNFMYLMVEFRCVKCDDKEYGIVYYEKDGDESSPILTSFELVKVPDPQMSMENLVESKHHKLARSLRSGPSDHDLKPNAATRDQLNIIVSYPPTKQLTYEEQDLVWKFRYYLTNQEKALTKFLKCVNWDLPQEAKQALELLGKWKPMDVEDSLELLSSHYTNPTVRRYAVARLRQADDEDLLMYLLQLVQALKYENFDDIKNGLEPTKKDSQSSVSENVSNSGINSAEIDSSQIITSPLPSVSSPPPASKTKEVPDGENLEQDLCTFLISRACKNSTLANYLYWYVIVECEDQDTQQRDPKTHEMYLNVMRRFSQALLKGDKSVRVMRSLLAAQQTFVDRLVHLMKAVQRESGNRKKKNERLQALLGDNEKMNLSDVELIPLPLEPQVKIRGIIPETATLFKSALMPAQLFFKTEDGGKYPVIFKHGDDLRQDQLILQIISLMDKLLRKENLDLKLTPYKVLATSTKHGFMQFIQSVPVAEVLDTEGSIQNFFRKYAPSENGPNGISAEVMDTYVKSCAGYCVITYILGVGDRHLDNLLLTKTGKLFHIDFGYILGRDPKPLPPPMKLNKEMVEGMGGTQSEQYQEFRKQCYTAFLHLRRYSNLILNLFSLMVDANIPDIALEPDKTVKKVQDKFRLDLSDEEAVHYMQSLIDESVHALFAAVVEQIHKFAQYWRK
T4 sequence (Q13523 whole entry): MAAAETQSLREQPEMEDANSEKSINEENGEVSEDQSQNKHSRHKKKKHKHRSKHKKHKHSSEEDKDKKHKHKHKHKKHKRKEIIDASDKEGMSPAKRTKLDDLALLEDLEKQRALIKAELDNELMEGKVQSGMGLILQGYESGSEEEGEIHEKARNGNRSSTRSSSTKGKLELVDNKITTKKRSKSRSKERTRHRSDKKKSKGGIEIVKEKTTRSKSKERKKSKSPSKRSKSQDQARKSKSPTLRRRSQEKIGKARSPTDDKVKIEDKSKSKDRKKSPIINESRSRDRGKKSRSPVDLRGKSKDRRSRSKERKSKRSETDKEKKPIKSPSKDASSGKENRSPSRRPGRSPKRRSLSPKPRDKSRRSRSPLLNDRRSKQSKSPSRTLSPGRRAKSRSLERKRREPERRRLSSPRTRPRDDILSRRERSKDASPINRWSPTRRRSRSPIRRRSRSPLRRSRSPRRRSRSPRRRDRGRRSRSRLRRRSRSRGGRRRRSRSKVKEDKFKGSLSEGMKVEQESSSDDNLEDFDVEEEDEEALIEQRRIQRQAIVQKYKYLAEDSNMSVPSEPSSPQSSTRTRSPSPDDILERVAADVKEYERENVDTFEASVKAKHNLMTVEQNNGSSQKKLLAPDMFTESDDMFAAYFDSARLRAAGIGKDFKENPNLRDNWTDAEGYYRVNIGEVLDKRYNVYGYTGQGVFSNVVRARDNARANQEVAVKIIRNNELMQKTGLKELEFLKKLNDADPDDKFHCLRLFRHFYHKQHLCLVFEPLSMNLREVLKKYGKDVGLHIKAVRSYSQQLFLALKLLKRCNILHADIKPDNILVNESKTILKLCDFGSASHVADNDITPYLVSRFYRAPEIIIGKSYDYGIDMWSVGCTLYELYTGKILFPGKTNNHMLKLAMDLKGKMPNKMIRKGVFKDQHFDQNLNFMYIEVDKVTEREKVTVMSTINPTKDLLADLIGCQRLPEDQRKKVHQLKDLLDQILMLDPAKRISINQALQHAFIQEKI

## N#CCc1ccc(Nc2nc(NCCCN)cc(Nc3cc(C4CC4)[nH]n3)n2)cc1 [KAM]
CLK2; [1]
  IC50: > 10 µM
CLK2; relative to 0 uM KAM = 0
  0.001 uM KAM: -0.009153
  0.01 uM KAM: 0.05043
  0.1 uM KAM: -0.05281
  1 uM KAM: -0.09929
  10 uM KAM: -0.1362
MAP4K3; 0.001 uM KAM
  median Log10 fold change: -0.00532
MAP4K3; 0.01 uM KAM
  median Log10 fold change: -0.01342
MAP4K3; 0.1 uM KAM
  median Log10 fold change: -0.1612
MAP4K3; 1 uM KAM
  median Log10 fold change: -0.436
MAP4K3; 10 uM KAM
  median Log10 fold change: -0.5629
MAP4K3; [2]
  IC50: 0.472 µM
PIK3R4; [1]
  IC50: > 10 µM
PIK3R4; relative to 0 uM KAM = 0
  0.001 uM KAM: -0.04609
  0.01 uM KAM: 0.02295
  0.1 uM KAM: -0.02338
  1 uM KAM: -0.03171
  10 uM KAM: -0.01923
PRPF4B; 0.001 uM KAM
  median Log10 fold change: -0.03755
PRPF4B; 0.01 uM KAM
  median Log10 fold change: -0.07792
PRPF4B; 0.1 uM KAM
  median Log10 fold change: -0.1894
PRPF4B; 1 uM KAM
  median Log10 fold change: -0.2633
PRPF4B; 10 uM KAM
  median Log10 fold change: -0.4136
PRPF4B; [2]
  IC50: 1.4 µM
SMG1; [1]
  IC50: > 10 µM
SMG1; relative to 0 uM KAM = 0
  0.001 uM KAM: -0.09325
  0.01 uM KAM: 0.027
  0.1 uM KAM: 0.0044
  1 uM KAM: 0.06163
  10 uM KAM: 0.05027
STK24; [1]
  IC50: > 10 µM
STK24; relative to 0 uM KAM = 0
  0.001 uM KAM: -0.01012
  0.01 uM KAM: -0.03939
  0.1 uM KAM: -0.06162
  1 uM KAM: -0.2602
  10 uM KAM: -0.2058
TEC; 0.001 uM KAM
  median Log10 fold change: -0.06308
TEC; 0.01 uM KAM
  median Log10 fold change: -0.04798
TEC; 0.1 uM KAM
  median Log10 fold change: -0.155
TEC; 1 uM KAM
  median Log10 fold change: -0.2973
TEC; 10 uM KAM
  median Log10 fold change: -0.4239
TEC; [2]
  IC50: 1.16 µM
TRRAP; [1]
  IC50: > 10 µM
TRRAP; relative to 0 uM KAM = 0
  0.001 uM KAM: -0.07186
  0.01 uM KAM: 0.02458
  0.1 uM KAM: 0.0008026
  1 uM KAM: 0.06144
  10 uM KAM: -0.07955
